Patent US9969776B2, “Drug conjugates for delivering compounds to senescent cells” (Unity Biotechnology, Inc., priority 2007, dated 2018)
Entries after “also recorded” stand apart in the source; their conditions may differ. Read-outs that look alike come from different tables or passages of the source. Where no end group is shown, it is not given here.

How the values were obtained:
[1] = system: immortalized prostate epithelial cells; assay: Cell Proliferation Assay WST-1; format: cell-based
Experimental: (§1) Cell proliferation was assayed using the Cell Proliferation Reagent WST-1 (Roche, Mannheim, Germany) by following the manufacturer's instructions.

[2] = system: non-senescent fibroblasts; assay: Cell Proliferation Assay WST-1; format: cell-based
Experimental: as §1

senescent fibroblasts [3] = assay: Cell Proliferation Assay WST-1; format: cell-based
Experimental: as §1

senescent fibroblasts [4] = assay: Cytotoxicity, LDH release (CytoTox-ONE); format: cell-based; conditions: 2 hours at 37° C.
[5] = system: non-senescent fibroblasts; assay: Cytotoxicity, LDH release (CytoTox-ONE); format: cell-based; conditions: 2 hours at 37° C.
[6] = system: prostate epithelial cells (RWPE-1); assay: Cytotoxicity, LDH release (CytoTox-ONE); format: cell-based; conditions: immortalized prostate epithelial cells RWPE-1, 2 hours at 37° C.
[7] = cited from earlier work
[8] = 1×iv, mice; cited from earlier work
normal fibroblasts = assay: Cell binding assay with radio-labeled peptide
Experimental: (§2) A senescent cell binding agent (SEQ ID NO:1) was conjugated at its C terminus to the linker sequence GGGC (SEQ ID NO:9) by synthesizing both as a single construct (i.e., SenC; SEQ ID NO:5). The purpose of attaching GGGC was that it can be used to chelate reduced 99m-Tc for radio-labeling. A 2 μL aliquot of conjugated senescent cell binding agent (3 M) was mixed with 40 μL of 0.25 M ammonium acetate, 15 μL of tartrate buffer pH 8.7, 4 μL of stannous chloride in 100 mM of sodium tartrate, and 30 μL of 99m-Tc pertechnetate. The mixture was heated for 25 minutes at 95° C. Quality control was performed with Sep-Pak and was always above 90% purity. A small aliquot was also injected on a Waters 600 HPLC to check the radiological profile. Fractions were collected and read on a gamma counter (Perkin-Elmer Wallac Wizard 1470).
(§3) Binding of radio-labeled SenC (SEQ ID NO:5) to senescent and non-senescent cells was tested by competition with unlabeled SenC. Peptide solutions were prepared to contain 0 or 20 μM of unlabeled SenC, 15 nM radio-labeled SenC, and 0.2% BSA. Chemically-induced senescent fibroblasts, their non-senescent counterparts, and prostate epithelial cells were prepared as above, harvested, and centrifuged. The cell pellets were resuspended in fresh media without FBS, and cells were counted. Peptide solution containing 0 or 20 μM unlabeled SenC and constant concentrations of SenC and 10^5 senescent cells were combined in a final volume of 200 μL of PBS in Eppendorf tubes and incubated for 4 hours. Cells were pelleted by centrifuging at 2500 rpm for 2 minutes and washed twice with PBS and 0.2% BSA. Pellets were suspended in 5 μL PBS and transferred to 12×75 mm tubes for counting radioactivity using a gamma counter (Perkin-Elmer Wallac Wizard 1470).

prostate epithelium = assay: Cell binding assay with radio-labeled peptide
Experimental: as §2, §3

senescent cells = assay: Cell binding assay with radio-labeled peptide
Experimental: as §2, §3

[9] = absence of unlabeled peptide, 15 nM radio-labeled SenC, 4 hours
[10] = presence of 20 μM unlabeled SenC

## GVYHFAPLTPTPGGGSKFAKFAKKFAKFAK (GVYHFAPLTPTPGGSKFAKFAKKFAKFAK) [SenL]
[1]
  cell proliferation (WST-1, metabolic activity): no change in cell proliferation; also recorded: no significant effect on metabolic activity
[2]
  cell proliferation (WST-1, metabolic activity): no change in cell proliferation; also recorded: no significant effect on metabolic activity
Senescent fibroblasts [3]
  cell proliferation (WST-1, metabolic activity): no change in cell proliferation; also recorded: no significant effect on metabolic activity
Senescent fibroblasts [4]
  cell death (percentage of cells killed): dose-dependent cell death at a significantly higher rate than either non-senescent fibroblasts or prostate epithelial cells
[5]
  cell death (percentage of cells killed): some cytotoxicity is observed
[6]
  cell death (percentage of cells killed): no cell death at all; also recorded: No cell death was observed

## CC[C@]1(O)C[C@@H]2CN(CCc3c([nH]c4ccccc34)[C@@](C(=O)OC)(c3cc4c(cc3OC)N(C)[C@H]3[C@@](O)(C(=O)OC)[C@H](OC(C)=O)[C@]5(CC)C=CCN6CC[C@]43[C@@H]65)C2)C1 [vinblastine]
[7]; escalating
  MTD: 3.3-11.1 mg/m^2
[7]; rarely to
  MTD: 18.5 mg/m^2

## CC[C@@]1(O)C(=O)OCc2c1cc1n(c2=O)Cc2cc3c(CN(C)C)c(O)ccc3nc2-1 [topotecan]
[8]
  LD1Omice: 75 mg/m^2

## radio-labeled SenC: SenC (SEQ ID NO:5) radio-labeled with 99m-Tc chelated by GGGC (GVYHFAPLTPTPGGGC; also: 99mTc chelated by GGGC)
Normal fibroblasts
  specificity of binding (absence vs. presence of unlabeled SenC): nonspecific
Normal fibroblasts; [9]
  bound peptide, average: 0.08 % of added dose
Normal fibroblasts; [10]
  bound peptide, average: 0.09 % of added dose
Prostate epithelium
  specificity of binding (absence vs. presence of unlabeled SenC): nonspecific
Prostate epithelium; [9]
  bound peptide, average: 0.06 % of added dose
Prostate epithelium; [10]
  bound peptide, average: 0.06 % of added dose
Senescent cells
  specificity of binding (absence vs. presence of unlabeled SenC): specific binding
Senescent cells; [9]
  bound peptide, average: 0.32 % of added dose
Senescent cells; [10]
  bound peptide, average: 0.25 % of added dose
